Columns and labels:
ECHCG = assay: Post-emergence herbicidal effect, greenhouse pot test; assay type: in vivo, Echinochloa crus-galli
How it was run: (§1)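 Greenhouse pot test: weeds and crops sown in sandy loam, sprayed post-emergence at one-leaf stage (2–3 weeks after sowing) with WP or EC formulations plus 0.5% additive at 600 l/ha water, rates 20–320 g/ha. Visual rating about 3 weeks later versus untreated controls (100% = dead, 0% = as control).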

POLCO = assay: as above; assay type: in vivo, Fallopia convolvulus
How it was run: as §1

PHBPU = assay: as above; assay type: in vivo, Ipomoea purpurea
How it was run: as §1

VERPE = assay: as above; assay type: in vivo, Veronica persica; conditions: 320 g/ha
How it was run: as §1

ZEAMX = assay: Post-emergence herbicidal effect and crop plant compatibility, greenhouse pot test; assay type: in vivo, Zea mays; conditions: one-leaf stage, rated visually after about 3 weeks vs untreated controls; for plant injury at 80 g/ha: read-out: Post-emergence effect at 80 g/ha against ZEAMX in %
How it was run: (§2)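 Sandy loam pots, greenhouse. One-leaf stage (2–3 wk after sowing) foliar spray; WP/EC in water + 0.5% additive, 600 l/ha; 20–320 g/ha. Visual score ~3 wk, 0–100% vs untreated.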

ALOMY = assay: Post-emergence herbicidal effect, greenhouse pot test; assay type: in vivo, Alopecurus myosuroides; conditions: 320 g/ha, visual rating about 3 weeks after treatment
How it was run: as §1

AVEFA = assay: as above; assay type: in vivo, Avena fatua; conditions: visual rating about 3 weeks after treatment
How it was run: as §1

DIGSA = assay: as above; assay type: in vivo, Digitaria sanguinalis; conditions: visual rating about 3 weeks after treatment
How it was run: as §1

ABUTH = assay: as above; assay type: in vivo, Abutilon theophrasti; conditions: visual rating about 3 weeks after treatment
How it was run: as §1

SETVI = assay: as above; assay type: in vivo, Setaria viridis
How it was run: as §1

KCHSC = assay: as above; assay type: in vivo
How it was run: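 Greenhouse plants in sandy loam, sprayed post-emergence at the one-leaf stage (2–3 weeks after sowing) with WP or EC formulations in water plus 0.5% additive at 600 l/ha. Rates 20 to 320 g/ha. Activity rated visually after about 3 weeks against untreated controls (0% like control, 100% dead).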

TRZAS = assay: Post-emergence herbicidal effect and crop plant compatibility, greenhouse pot test; assay type: in vivo, Triticum aestivum; conditions: Triticum aestivum, 504 h, 20 g/ha, one-leaf stage, rated visually after about 3 weeks vs untreated controls, read-out: Post-emergence effect at 20 g/ha against TRZAS in %
How it was run: as §2

LOLRI = assay: Post-emergence herbicidal effect, greenhouse pot test; assay type: in vivo, Lolium rigidum
How it was run: as §1

VIOTR = assay: as above; assay type: in vivo, Viola tricolor
How it was run: as §1

AMARE = assay: as above; assay type: in vivo, Amaranthus retroflexus; conditions: 320 g/ha, visual rating about 3 weeks after treatment
How it was run: as §1

[1] = 504 h, 320 g/ha, read-out: Post-emergence effect against KCHSC in %

CCOC(=O)C(OC)Oc1nn(-c2ncccc2F)c(-c2ccc(F)nc2)c1C(F)(F)F (stereo not shown) [Example I-55]
pest or weed control at 80 g/ha (ECHCG; Echinochloa crus-galli, 504 h, 80 g/ha, read-out: Post-emergence effect against ECHCG in %): 90%
pest or weed control at 320 g/ha (ECHCG; Echinochloa crus-galli, 504 h, 320 g/ha, read-out: Post-emergence effect against ECHCG in %): 90%
pest or weed control at 80 g/ha (POLCO; Fallopia convolvulus, 504 h, 80 g/ha, read-out: Post-emergence effect against POLCO in %): 80%
pest or weed control at 320 g/ha (POLCO; Fallopia convolvulus, 504 h, 320 g/ha, read-out: Post-emergence effect against POLCO in %): 90%
pest or weed control at 20 g/ha (PHBPU; Ipomoea purpurea, 504 h, 20 g/ha, read-out: Post-emergence effect against PHBPU in %): 80%
pest or weed control at 80 g/ha (PHBPU; Ipomoea purpurea, 504 h, 80 g/ha, read-out: Post-emergence effect against PHBPU in %): 80%
pest or weed control at 320 g/ha (PHBPU; Ipomoea purpurea, 504 h, 320 g/ha, read-out: Post-emergence effect against PHBPU in %): 90%
pest or weed control at 320 g/ha (VERPE; Veronica persica, 504 h, read-out: Post-emergence effect against VERPE in %): 90%
plant injury at 20 g/ha (ZEAMX; Zea mays, 504 h, 20 g/ha, read-out: Post-emergence effect at 20 g/ha against ZEAMX in %): 0%
plant injury at 80 g/ha (ZEAMX; Zea mays, 504 h, 80 g/ha): 0%
pest or weed control at 320 g/ha (ALOMY; Alopecurus myosuroides, 504 h, read-out: Post-emergence effect against ALOMY): 90%
pest or weed control at 80 g/ha (AVEFA; Avena fatua, 504 h, 80 g/ha, read-out: Post-emergence effect against AVEFA): 90%
pest or weed control at 320 g/ha (AVEFA; Avena fatua, 504 h, 320 g/ha, read-out: Post-emergence effect against AVEFA): 90%
pest or weed control at 80 g/ha (DIGSA; Digitaria sanguinalis, 504 h, 80 g/ha, read-out: Post-emergence effect against DIGSA): 90%
pest or weed control at 320 g/ha (DIGSA; Digitaria sanguinalis, 504 h, 320 g/ha, read-out: Post-emergence effect against DIGSA): 90%
pest or weed control at 80 g/ha (ABUTH; Abutilon theophrasti, 504 h, 80 g/ha, read-out: Post-emergence effect against ABUTH): 80%
pest or weed control at 320 g/ha (ABUTH; Abutilon theophrasti, 504 h, 320 g/ha, read-out: Post-emergence effect against ABUTH): 90%
pest or weed control at 320 g/ha (SETVI; Setaria viridis, 504 h, 320 g/ha, read-out: Post-emergence effect against SETVI in %): 80%
pest or weed control at 80 g/ha (KCHSC; 504 h, 80 g/ha, read-out: Post-emergence effect against KCHSC in %): 90%
pest or weed control at 320 g/ha (KCHSC; [1]): 90%
percent crop injury (phytotoxicity) to wheat, post-emergence at 20 g/ha (TRZAS): 20%
pest or weed control at 320 g/ha (LOLRI; Lolium rigidum, 504 h, 320 g/ha, read-out: Post-emergence effect against LOLRI in %): 90%
pest or weed control at 80 g/ha (VIOTR; Viola tricolor, 504 h, 80 g/ha, read-out: Post-emergence effect against VIOTR in %): 80%
pest or weed control at 320 g/ha (VIOTR; Viola tricolor, 504 h, 320 g/ha, read-out: Post-emergence effect against VIOTR in %): 90%

COC(Oc1nn(-c2ncccc2F)c(-c2cncc(F)c2)c1C1CC1)C(=O)O (stereo not shown) [Example I-85]
Post-emergence effect against AMARE (AMARE): 80%
Post-emergence effect against ECHCG (ECHCG; 20 g/ha, visual rating about 3 weeks after treatment): 90%
Post-emergence effect against ECHCG in % (ECHCG; 80 g/ha): 90%
Post-emergence effect against ECHCG in % (ECHCG; 320 g/ha): 90%
Post-emergence effect against POLCO in % (POLCO; 80 g/ha): 90%
Post-emergence effect against POLCO in % (POLCO; 320 g/ha): 90%
pest or weed control at 20 g/ha (POLCO; Fallopia convolvulus, 504 h, 20 g/ha, read-out: Post-emergence effect against POLCO in %): 80%
Post-emergence effect against PHBPU in % (PHBPU; 20 g/ha): 80%
Post-emergence effect against PHBPU in % (PHBPU; 80 g/ha): 90%
Post-emergence effect against PHBPU in % (PHBPU; 320 g/ha): 90%
Post-emergence effect against VERPE in % (VERPE): 90%
Post-emergence effect at 20 g/ha against ZEAMX in % (ZEAMX; 20 g/ha): 0%
plant injury at 80 g/ha (ZEAMX; Zea mays, 504 h, 80 g/ha): 20%
Post-emergence effect against ALOMY (ALOMY): 90%
Post-emergence effect against AVEFA (AVEFA; 80 g/ha): 90%
Post-emergence effect against AVEFA (AVEFA; 320 g/ha): 90%
Post-emergence effect against DIGSA (DIGSA; 320 g/ha): 90%
Post-emergence effect against ABUTH (ABUTH; 80 g/ha): 80%
Post-emergence effect against ABUTH (ABUTH; 320 g/ha): 90%
Post-emergence effect against SETVI in % (SETVI; 80 g/ha): 90%
Post-emergence effect against SETVI in % (SETVI; 320 g/ha): 90%
Post-emergence effect against KCHSC in % (KCHSC; 80 g/ha): 90%
Post-emergence effect against KCHSC in % (KCHSC; 320 g/ha): 90%
percent crop injury (phytotoxicity) to wheat, post-emergence at 20 g/ha (TRZAS): 0%
Post-emergence effect against LOLRI in % (LOLRI; 80 g/ha): 80%
Post-emergence effect against LOLRI in % (LOLRI; 320 g/ha): 90%
Post-emergence effect against VIOTR in % (VIOTR; 80 g/ha): 80%
Post-emergence effect against VIOTR in % (VIOTR; 320 g/ha): 90%

COC(=O)C(OC)Oc1nn(-c2ncccc2F)c(-c2ccc(F)nc2)c1C1CC1 (stereo not shown) [Example I-107]
Post-emergence effect against AMARE (AMARE): 80%
Post-emergence effect against ECHCG in % (ECHCG; 320 g/ha): 90%
Post-emergence effect against POLCO in % (POLCO; 80 g/ha): 90%
Post-emergence effect against POLCO in % (POLCO; 320 g/ha): 90%
Post-emergence effect against PHBPU in % (PHBPU; 80 g/ha): 80%
Post-emergence effect against PHBPU in % (PHBPU; 320 g/ha): 80%
Post-emergence effect against VERPE in % (VERPE): 80%
Post-emergence effect at 20 g/ha against ZEAMX in % (ZEAMX; 20 g/ha): 0%
Post-emergence effect at 80 g/ha against ZEAMX in % (ZEAMX; 80 g/ha): 0%
Post-emergence effect against ALOMY (ALOMY): 100%
Post-emergence effect against AVEFA (AVEFA; 320 g/ha): 90%
Post-emergence effect against DIGSA (DIGSA; 320 g/ha): 80%
Post-emergence effect against ABUTH (ABUTH; 320 g/ha): 80%
Post-emergence effect against SETVI in % (SETVI; 320 g/ha): 90%
pest or weed control at 320 g/ha (KCHSC; [1]): 90%
percent crop injury (phytotoxicity) to wheat, post-emergence at 20 g/ha (TRZAS): 20%
Post-emergence effect against LOLRI in % (LOLRI; 320 g/ha): 90%
Post-emergence effect against VIOTR in % (VIOTR; 320 g/ha): 90%
